{"source": "patent US20100254965A1", "about": "“Adenosine Signaling in Diagnosis, Treatment, and Prevention of Priapism and Erectile Dysfunction” (BOARD OF REGENTS ,THE UNIVERSITY OF TEXAS SYSTEM, priority 2006, published 2010)", "key": {"[1]": {"system": "corpus cavernosal smooth muscle cells (CCSM)", "assay": "cGMP levels in primary CCSM / PVSM", "type": "cell-based, mouse", "conditions": "CCSM/PVSM of both wild type and A2BR deficient mice, 10 min", "from_the_text": "Results for wild-type and A2B^−/− mouse were statistically significant, p<0.01.\nFIG. 18. Adenosine stimulated both cAMP and cGMP induction in corpus cavernosal smooth muscle cells (CCSM) via A2BR activation. (a) Adenosine receptor expression profile in purified primary CCSM. CCSM were purified from adult mouse penes. […] (b) CCSM were isolated and cultured from mouse penes. The cells were switched to serum-free medium and treated with different concentrations of adenosine with or without A2BR antagonist (MRS1706-10 μM), A2AR antagonist (ZM241385-50 nM) or A2AR agonist (CGS-21680-10 μM) alone for 10 min. Then cellular extracts were collected and cAMP levels were measured using an ELISA kit. The data represent mean±SE. *p<0.05, adenosine treated versus the untreated; **p<0.05, adenosine plus MRS1706 or ZM241385 versus the adenosine treated. (c) CCSM were isolated from penes of the wild type and A2BR-deficient mice and cultured with or without adenosine (100 μM), NECA (10 μM), a potent adenosine receptor agonist, forskolin (10 μM), an adenylyl cyclase agonist. […] N=4. *p<0.05, adenosine, forskolin and NECA treated versus the untreated control. (d) Corpus cavernosal strips (CCS) were isolated from wild type and A2BR-deficient mice and treated with different concentrations of adenosine in the presence or absence of L-NAME (100 μM) or MRS1706 (10 μM). 10 min after treatment, cellular extracts were collected and cGMP levels were measured by using a commercial enzyme immunoassay kit (Amersham Pharmacia). Data are expressed as mean±SE. *p<0.05, adenosine treated versus the control; **p<0.05, adenosine treated with MRS1706 versus the adenosine treated; ***p<0.05, CCS of A2BR-deficient mice treated with adenosine versus the CCS of wild type mice treated with adenosine. N=6-7. (e) CCSM were isolated from wild type and A2BR deficient mice and cultured with or without adenosine (100 μM), NECA (10 μM), a potent adenosine receptor agonist, forskolin (10 μM), an adenylyl cyclase agonist, or diethylamine-NONOate (DEA/NO) (10 μM). […] N=4. *p<0.05, DEA/NO treated versus to the untreated control. (f) Both cAMP and cGMP induction contribute to adenosine-mediated decreased PE-induced phosphorylation of myosin light chain (MLC). CCSM and CCS were isolated and cultured with the treatment of phenylephrine (PE-10 μM) in the presence or absence of adenosine (100 μM) or L-NAME (100 μM). 10 min after treatment, cellular extracts were isolated and western blot analysis were performed. The total MLC and phosphorylated MLC at S20 were detected by specific antibodies.\n(§1) Isolation of primary corpus cavernosal smooth muscle cells (CCSM). Corpus cavernosum tissues were dissected as described above. Cavernosal tissue was washed in PBS and minced into […] pieces. Segments were incubated in 5-10 ml enzyme solutions containing 0.02% collagenase A (0.272 U/mg protein, Roche, Mannheim, Germany) and 0.5% elastase (3.73 U/mg protein, Cell system, St Katharinen, Germany) in a 75 mm flask at 37° C. for 6 hours. Enzymatic digestion was terminated by adding 10 ml DMEM supplemented with 10% fetal calf serum (FCS). […]\nTissue and corpus cavernosum smooth muscle cell (CCSM) cAMP and cGMP measurement. Quantitative assays for cAMP and cGMP were performed by using a commercial enzyme immunoassay kit (Amersham Pharmacia). […]"}, "[2]": {"system": "corpus cavernosal smooth muscle cells (CCSM)", "assay": "cAMP production in primary corpus cavernosal / penile vascular smooth muscle cells (CCSM, PVSM)", "type": "cell-based, mouse", "conditions": "10 min", "procedure": "PVSM were isolated and cultured from mouse penes. The cells were be switched to serum-free medium and treated with different concentrations of adenosine with or without A2B antagonist (MRS1706-1 μM) or A2A agonist (CGS-21680-1 μM) alone for 10 min. Then cellular extracts were collected and cAMP levels were measured using an ELISA kit. The data represent mean±SE.\nData are presented as mean±SE. *, p<0.01.\nFIG. 18. Adenosine stimulated both cAMP and cGMP induction in corpus cavernosal smooth muscle cells (CCSM) via A2BR activation. (a) Adenosine receptor expression profile in purified primary CCSM. CCSM were purified from adult mouse penes. […] (b) CCSM were isolated and cultured from mouse penes. The cells were switched to serum-free medium and treated with different concentrations of adenosine with or without A2BR antagonist (MRS1706-10 μM), A2AR antagonist (ZM241385-50 nM) or A2AR agonist (CGS-21680-10 μM) alone for 10 min. Then cellular extracts were collected and cAMP levels were measured using an ELISA kit. The data represent mean±SE. *p<0.05, adenosine treated versus the untreated; **p<0.05, adenosine plus MRS1706 or ZM241385 versus the adenosine treated. (c) CCSM were isolated from penes of the wild type and A2BR-deficient mice and cultured with or without adenosine (100 μM), NECA (10 μM), a potent adenosine receptor agonist, forskolin (10 μM), an adenylyl cyclase agonist. After 10 min treatment, the cellular extracts were collected and cAMP levels were measured by using a commercial enzyme immunoassay kit (Amersham Pharmacia). N=4. *p<0.05, adenosine, forskolin and NECA treated versus the untreated control. (d) Corpus cavernosal strips (CCS) were isolated from wild type and A2BR-deficient mice and treated with different concentrations of adenosine in the presence or absence of L-NAME (100 μM) or MRS1706 (10 μM). 10 min after treatment, cellular extracts were collected and cGMP levels were measured by using a commercial enzyme immunoassay kit (Amersham Pharmacia). Data are expressed as mean±SE. *p<0.05, adenosine treated versus the control; **p<0.05, adenosine treated with MRS1706 versus the adenosine treated; ***p<0.05, CCS of A2BR-deficient mice treated with adenosine versus the CCS of wild type mice treated with adenosine. N=6-7. (e) CCSM were isolated from wild type and A2BR deficient mice and cultured with or without adenosine (100 μM), NECA (10 μM), a potent adenosine receptor agonist, forskolin (10 μM), an adenylyl cyclase agonist, or diethylamine-NONOate (DEA/NO) (10 μM). After 10 min treatment, the cellular extracts were collected and cAMP levels were measured by using a commercial enzyme immunoassay kit (Amersham Pharmacia). N=4. *p<0.05, DEA/NO treated versus to the untreated control. (f) Both cAMP and cGMP induction contribute to adenosine-mediated decreased PE-induced phosphorylation of myosin light chain (MLC). CCSM and CCS were isolated and cultured with the treatment of phenylephrine (PE-10 μM) in the presence or absence of adenosine (100 μM) or L-NAME (100 μM). 10 min after treatment, cellular extracts were isolated and western blot analysis were performed. The total MLC and phosphorylated MLC at S20 were detected by specific antibodies.\nas §1"}, "[3]": {"system": "corpus cavernosum of wild type, A2A-deficient and A2B-deficient mice", "assay": "Intracavernous injection of adenosine: intracavernous pressure (ICP) and penile erection", "type": "in vivo, mouse", "conditions": "wild type mice", "procedure": "FIG. 6. Different amounts of adenosine were injected into the corpus cavernosum of wild type, adenosine receptor A2A-deficient, and adenosine receptor A2B-deficient mice and the resulting change in ICP determined.\nMethods: ADA-deficient mice and SCD transgenic mice, a well accepted priapism animal model, are the only animals known in which a persistent and prolonged penile erection occurs spontaneously. […] We have measured intracavernosal pressure and corpus cavernosal strip (CCS) relaxation with or without PEG-ADA treatment and/or a series of adenosine receptor antagonists or agonists in wild type ADA-deficient mice, and corpus cavernosal strip (CCS) relaxation with or without PEG-ADA treatment and/or a series of adenosine receptor antagonists or agonists in SCD transgenic mice, in response to nerve stimulation. We have also measured the intracavernosal pressure and CCS relaxation with or without adenosine treatment in wild type and multiple adenosine receptor deficient mice."}, "[4]": {"system": "corpus cavernosal strips (CCS)", "assay": "Adenosine-induced relaxation of corpus cavernosal strips (CCS)", "type": "cell-based, mouse", "conditions": "CCS of wild type mice, DCF 5 μM or 0-100 uM with adenosine 100 μM; listed as DCF", "procedure": "FIG. 16. […] CCS of wild type mice were treated with different concentrations of adenosine with or without DCF (5 μM), a specific inhibitor of adenosine deaminase. Then the extent (mN) of force was monitored. (b) CCS of wild type mice were treated with 100 μM adenosine in the presence of different concentrations of DCF (0-100 uM). Then the extent of force was measured. Data are expressed as mean±SE. *p<0.05, adenosine treated versus the control, **p<0.05, DCF treated versus the adenosine treated.\nFIG. 17. A2BR signaling is required for adenosine-mediated corpus cavernosal strips (CCS) relaxation. (a) CCS of wild type mice were treated with different concentrations of theophiline (1-10 μM) in the presence or absence of adenosine (100 μM). The force changes were measured by force transducer. Data are expressed as mean±SE. *p<0.05, adenosine treated versus the control, **p<0.05, theophiline treated versus the untreated, N=5. (b) CCS from wild type, A2AR, A1R A2BR and A3R-deficient mice were treated with different concentrations of adenosine. The relaxation was measured by force transducer. Data are expressed as mean±SE. *p<0.05, adenosine treated versus the wild type. (c) CCS were isolated from wild type and A2BR-deficient mice and treated with different concentrations of adenosine in the presence or absence of L-NAME (100 μM) or MRS1706 (10 μM). 10 min after treatment, cellular extracts were collected and cAMP levels were measured by using a commercial enzyme immunoassay kit (Amersham Pharmacia). Data are expressed as mean±SE. *p<0.05, adenosine treated versus the control without treatment; **p<0.05, adenosine treated with MRS1706 versus the adenosine treated alone; ***p<0.05, CCS of A2BR-deficient mice treated with adenosine versus the CCS of wild type mice treated with adenosine. N=6-7. (d) CCS of A2BR and ADA double deficient mice lost the hypersensitivity to nerve stimulation compared to ADA deficient mice.\nFunction experiments. The tunica albuginea was cut longitudinally, starting at the most proximal point of the corpus cavernosum (CC) toward the penile shaft, and the erectile tissue was partially dissected free from the tunica. One strip of tissue (0.3×0.3×3 mm) was obtained from each corpus cavernosum. The contractility of each isolated corpus cavernosum smooth muscle cells (CCSM) strip was measured using an isometric force transducer (AD Instrument Inc., Georgia, Vt., USA). The strip was mounted in a thermostatically controlled tissue bath containing aerated PSS (mM: 119 NaCl, 4.7 KCl, 24 NaHCO 3, 1.2 KH2PO4, 2.5 CaCl2, 1.2 MgSO4, 0.023 EDTA, and 11 glucose; 5 ml volume, 95% O2 and 5% CO2, 37° C.) and stretched to a resting tension of 0.1 mN. The contractile responses of the strips were analysed by adding 10 μM phenylephrine to the bath, and force changes were recorded in response to drug application and to electrical field stimulation. The particular electrical field stimulation parameters of 0-30V, 30 HZ with a pulse width of approximately 0.5 ms, are commonly used in the mice. […] The changes of cAMP and cGMP contents in CC strips were subsequently measured by commercial enzyme immunoassay kit (Amersham Pharmacia) (see below)."}, "[5]": {"conditions": "wild type CCSM/PVSM, agent alone"}}, "note": "“Also recorded” adds a separate entry of the source.", "data": [{"compound": "CCN(CC)/[N+]([O-])=N/O.CCNCC", "note": "[DEA/NO, diethylamine-NONOate]", "values": [{"measurement": "cGMP levels", "setting": "[1]", "value": "induced cGMP production"}, {"measurement": "cGMP levels", "setting": "[1]; listed as diethylamine-NONOate", "value": "comparable high levels of cGMP production"}]}, {"compound": "CCNC(=O)[C@H]1O[C@@H](n2cnc3c(N)nc(NCCc4ccc(CCC(=O)O)cc4)nc32)[C@H](O)[C@@H]1O", "note": "[CGS21690C]", "values": [{"measurement": "cAMP production", "setting": "[2]; [5]", "value": "failed to induce cAMP production"}]}, {"compound": "CCNC(=O)[C@H]1O[C@@H](n2cnc3c(N)ncnc32)[C@H](O)[C@@H]1O", "note": "[NECA, 5′-N-ethylcarbosamide adenosine]", "values": [{"measurement": "cGMP levels", "setting": "[1]", "value": "lack of significant differences in cGMP production; also recorded: had no effect"}, {"measurement": "cAMP production", "setting": "[2]; CCSM/PVSM of A2BR deficient (A2B-/-) mice", "value": "essentially no effect on cAMP levels; also recorded: failed to induce cAMP production"}, {"measurement": "cAMP production", "setting": "[2]; [5]", "value": "elevate cAMP levels; also recorded: induced cAMP"}]}, {"compound": "OC[C@H]1O[C@@H](n2cnc3c2NC=NC[C@H]3O)C[C@@H]1O", "note": "[deoxycoformycin]", "values": [{"measurement": "adenosine-induced penile erection with ADA inhibitor", "setting": "[3]; co-injected with adenosine", "value": "prolonged"}, {"measurement": "adenosine-induced increase in pressure (ICP) with ADA inhibitor", "setting": "[3]; coinjection with adenosine", "value": "prolonged the adenosine-induced increase in pressure"}, {"measurement": "adenosine-induced CCS relaxation with ADA inhibitor versus adenosine alone", "setting": "[4]", "value": "significantly increased relaxation compared with adenosine alone; also recorded: increased the adenosine induced relaxation of CCS"}]}]}
